Data from PubChem BioAssay AID1963856 (Molecular Pharmacology Branch, DTP, NCI, 2024).

Test system: LG0567-F671-PDC KRAS tumor spheroid viability
Test: Anticancer human tumor LG0567-F671-PDC patient-derived lung adenocarcinoma cell line growth inhibition [KRAS2]
Settings: spheroids with HUVEC and MSC; for IC50: curve of first compound; for viability, T/C: stronger effect = lower value
Description: Multicellular complex tumor spheroid response to RAS pathway inhibitors in combination with a targeted agents in patient-derived cell lines with oncogenic KRAS variants from multiple cancer types
A high-throughput screen of multi-cell type tumor spheroids was designed to identify active combinations of targeted small molecules and KRAS pathway inhibitors. Complex spheroids include a stromal component modeled by human endothelial cells (HUVEC) and fibroblasts modeled by human mesenchymal stem cells (MSCs). The concentration ranges selected for each drug and investigational agent were based upon clinically achievable concentrations if the clinical Cmax of the agent was known.
Compounds. The drugs and investigational agents: BI-3406 (NSC825286), BAY-293 (NSC824723), batoprotafib (TNO155; NSC825523), sotorasib (AMG 510; NSC818433), MRTX1257 (NSC819558), elimusertib (BAY 1895344; NSC800525), molibresib (GSK525762; NSC774829), temuterkib (LY3214996; NSC803410), venetoclax (NSC766270), alisertib (NSC759677), olaparib (NSC753686), talazoparib (NSC767125), erdafitinib (NSC781556), ipatasertib (NSC767898), cabozantinib (NSC761068), nintedanib (NSC756659), abemaciclib (NSC768073), docetaxel (NSC628503), trametinib (NSC758246), and sapanisertib (NSC764658) were obtained from the National Cancer Institute (NCI) Developmental Therapeutics Program Chemical Repository. The FDA-approved anticancer drug set is available from the Developmental Therapeutics Program. […] The stock solutions were prepared in dimethyl sulfoxide (DMSO, Sigma-Aldrich, St. Louis, MO, cat. D2650) at 800-fold the tested concentration and stored at -70 degrees C prior to their use. All drugs and investigational agents were tested over a range starting from a high concentration at or near the clinical Cmax and decreasing in half-log increments. If the clinical Cmax for an agent had not been determined, the highest concentration tested was 10 microM.
Cell Culture. All cells were maintained in an incubator at 37 degrees C and 5% CO2 with 95% humidity. The PDC lines were cultured according to standard operating procedures established by the NCI PDMR (https://pdmr.cancer.gov/sops/default.htm). Briefly, all PDCs were thawed and cultured in Matrigel-coated flasks prepared with a working solution of 1X Ham's F-12 nutrient mix, without supplementation (Invitrogen, Waltham, MA, cat. 11765054), 100 U/mL penicillin-streptomycin (Invitrogen, cat. 15140122), and 2.5% Matrigel (Corning Inc., Corning, NY, cat. 354248) for the first three passages. All PDCs were cultured in complete DMEM/F-12 media containing advanced DMEM/F-12 (Invitrogen, cat. 12634028), 4.9% defined fetal bovine serum, heat inactivated (HyClone Laboratories Inc., Logan, UT, cat. SH30070.03HI), 389 ng/mL hydrocortisone (Sigma-Aldrich, cat. H4001), 9.7 ng/mL human EGF recombinant protein (Invitrogen, cat. PHG0313), 23.4 microg/mL adenine (Sigma-Aldrich, cat. A2786), 97.3 U/mL penicillin-streptomycin (Invitrogen, cat. 15140122), 1.9 mM L-glutamine (Invitrogen, cat. 25030081), and 9.7 microM Y-27632 dihydrochloride (Tocris Bioscience, Bristol, United Kingdom, cat. 1254). The PDCs were cultured in complete DMEM/F12 media without 9.7 microM Y-27632 dihydrochloride for at least two passages prior to the screen. The established cell line HOP-62 was cultured in RPMI 1640 medium, HEPES (Invitrogen, cat. 22400105) with 10% defined fetal bovine serum (HyClone Laboratories Inc., cat. SH30070.03) and 2 mM L-glutamine (Invitrogen, cat. 25030081). The pooled donor HUVEC were cultured in endothelial cell growth medium 2 (PromoCell, Heidelberg, Germany, cat. C-22011) and the hMSC were cultured in mesenchymal stem cell growth medium 2 (PromoCell, cat. C-28009). For all experiments, HUVEC and hMSC were used at passages </=5, while the malignant cell lines were used at passages </=15. […]

[1] = second compound 0.1 µM, first compound 0.0316 µM
[2] = second compound 0.1 µM, first compound 0.1 µM
[3] = second compound 0.1 µM, first compound 0.316 µM
[4] = second compound 0.1 µM, first compound 1 µM
[5] = second compound 0.1 µM, first compound 3.16 µM
[6] = second compound 0.1 µM, first compound 10 µM
[7] = second compound 0.316 µM, first compound 0.0316 µM
[8] = second compound 0.316 µM, first compound 0.1 µM
[9] = second compound 0.316 µM, first compound 0.316 µM
[10] = second compound 0.316 µM, first compound 1 µM
[11] = second compound 0.316 µM, first compound 3.16 µM
[12] = second compound 0.316 µM, first compound 10 µM
[13] = second compound 1 µM, first compound 0.0316 µM
[14] = second compound 1 µM, first compound 0.1 µM
[15] = second compound 1 µM, first compound 0.316 µM
[16] = second compound 1 µM, first compound 1 µM
[17] = second compound 1 µM, first compound 3.16 µM
[18] = second compound 1 µM, first compound 10 µM
[19] = second compound 3.16 µM, first compound 0.0316 µM
[20] = second compound 3.16 µM, first compound 0.1 µM
[21] = second compound 3.16 µM, first compound 0.316 µM
[22] = second compound 3.16 µM, first compound 1 µM
[23] = second compound 3.16 µM, first compound 3.16 µM
[24] = second compound 3.16 µM, first compound 10 µM
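Note: drug exposure lasted seven days after spheroids formed for three days.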
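Throughout, for viability, T/C: 100% = DMSO vehicle control viability.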

Row | SMILES | IC50 (second compound 0.1 µM) | IC50 (second compound 0.316 µM) | IC50 (second compound 1 µM) | IC50 (second compound 3.16 µM) | viability, T/C [1] | viability, T/C [2] | viability, T/C [3] | viability, T/C [4] | viability, T/C [5] | viability, T/C [6] | viability, T/C [7] | viability, T/C [8] | viability, T/C [9] | viability, T/C [10] | viability, T/C [11] | viability, T/C [12] | viability, T/C [13] | viability, T/C [14] | viability, T/C [15] | viability, T/C [16] | other results
1 | COC(=O)c1ccc2c(C(=Nc3ccc(N(C)C(=O)CN4CCN(C)CC4)cc3)c3ccccc3)c(O)[nH]c2c1 + C=CC(=O)N1CCN(c2nc(OCC3CCCN3C)nc3c2CCN(c2cccc4cccc(C)c24)C3)CC1CC#N | < 31.6 nM | < 31.6 nM | < 31.6 nM | < 31.6 nM | 21.6% | 20.4% | 23.4% | 27.4% | 26.1% | 27% | 23.2% | 21.1% | 22.7% | 27.8% | 27.7% | 28.3% | 26.6% | 26.3% | 27.6% | 28.8% | IC50 (second compound 0.0316 µM): < 31.6 nM; viability, T/C (second compound 0.0316 µM, first compound 0.0316 µM): 23.7%; viability, T/C (second compound 0.0316 µM, first compound 0.1 µM): 23.2%; viability, T/C (second compound 0.0316 µM, first compound 0.316 µM): 21.9%; viability, T/C (second compound 0.0316 µM, first compound 1 µM): 30.4%; viability, T/C (second compound 0.0316 µM, first compound 3.16 µM): 26.8%; viability, T/C (second compound 0.0316 µM, first compound 10 µM): 31.9%; viability, T/C [17]: 23.9%; viability, T/C [18]: 23.4%; viability, T/C [19]: 17.9%; viability, T/C [20]: 29.2%; viability, T/C [21]: 13.2%; viability, T/C [22]: 0.34%; viability, T/C [23]: 0.12%; viability, T/C [24]: 0.93%
2 | CC1OCC2(CCN(c3cnc(Sc4ccnc(N)c4Cl)c(N)n3)CC2)C1N (stereo not given) + COc1cc2nc(C)nc(NC(C)c3cc(N)cc(C(F)(F)F)c3)c2cc1OC1CCOC1 | 62.2 nM | 55.5 nM | 68.1 nM | 57.7 nM | 61.9% | 40.3% | 30.6% | 27.5% | 23.1% | 15.3% | 58% | 41.6% | 30.6% | 25.8% | 21.7% | 16% | 61.5% | 43.6% | 32% | 26.3% | IC50 (second compound 10 µM): 56.2 nM; viability, T/C [17]: 19.2%; viability, T/C [18]: 13.5%; viability, T/C [19]: 58.1%; viability, T/C [20]: 42.3%; viability, T/C [21]: 32%; viability, T/C [22]: 25.4%; viability, T/C [23]: 19.2%; viability, T/C [24]: 13.6%; viability, T/C (second compound 10 µM, first compound 0.0316 µM): 52.7%; viability, T/C (second compound 10 µM, first compound 0.1 µM): 47.4%; viability, T/C (second compound 10 µM, first compound 0.316 µM): 28.9%; viability, T/C (second compound 10 µM, first compound 1 µM): 20.2%; viability, T/C (second compound 10 µM, first compound 3.16 µM): 19.5%; viability, T/C (second compound 10 µM, first compound 10 µM): 16%
